# In the supplement of paper PMC10307832:
# Legend:
# Experiment in all cases: relative viability (nuclei count vs DMSO), 5 days (fraction); higher = more cells survive
# AZD6482 + AZD7762 = compound: Cc1cc([C@@H](C)Nc2ccccc2C(=O)O)c2nc(N3CCOCC3)cc(=O)n2c1 [AZD6482] + NC(=O)Nc1cc(-c2cccc(F)c2)sc1C(=O)N[C@H]1CCCNC1 [AZD7762] (partner 0.2 µM)
# Method in brief: (§1)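 Lung cancer cell lines in 1536-well plates got either a single drug or a fixed anchor-drug dose together with five library-drug doses (not always all listed) in √10 steps, by pin tool, on the day after seeding. Nuclei were counted after 5 days, and relative viability is the treated-to-vehicle ratio of nuclei counts. Values are medians of duplicate plates.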
# [1] = compound: COc1cc2nc(N3CCCN(C)CC3)nc(NC3CCN(Cc4ccccc4)CC3)c2cc1OC + CC(C)C[C@H](NC(=O)[C@H](Cc1ccccc1)NC(=O)c1cnccn1)B(O)O [Bortezomib] (partner 0.002 µM)
# Method in brief: as §1
# [2] = compound: COc1cc2nc(N3CCCN(C)CC3)nc(NC3CCN(Cc4ccccc4)CC3)c2cc1OC + O=C(CCCCCCC(=O)Nc1ccccc1)NO [Vorinostat] (partner 1 µM)
# Method in brief: as §1
# AZD6482 + Phenformin = compound: Cc1cc([C@@H](C)Nc2ccccc2C(=O)O)c2nc(N3CCOCC3)cc(=O)n2c1 [AZD6482] + N=C(N)NC(=N)NCCc1ccccc1 [Phenformin] (partner 250 µM)
# Method in brief: as §1
Cell Line,relative viability (AZD6482 + AZD7762; first compound 0.08 µM),relative viability (AZD6482 + AZD7762; first compound 0.253 µM),relative viability (AZD6482 + AZD7762; first compound 0.8 µM),relative viability (AZD6482 + AZD7762; first compound 2.53 µM),relative viability (AZD6482 + AZD7762; first compound 8 µM),relative viability ([1]; first compound 0.2 µM),relative viability ([1]; first compound 0.6325 µM),relative viability ([1]; first compound 2 µM),relative viability ([1]; first compound 6.325 µM),relative viability ([2]; first compound 0.2 µM),relative viability ([2]; first compound 0.6325 µM),relative viability ([2]; first compound 2 µM),relative viability ([2]; first compound 6.325 µM),relative viability (AZD6482 + Phenformin; first compound 0.08 µM),relative viability (AZD6482 + Phenformin; first compound 0.8 µM),relative viability (AZD6482 + Phenformin; first compound 2.53 µM),relative viability (AZD6482 + Phenformin; first compound 8 µM),relative viability (AZD6482 + Phenformin; first compound 0.253 µM)
NCI-H2405,0.563,0.658,0.697,0.388,0.374,0.978,0.987,1.04,0.971,1.01,0.989,1.02,0.976,0.274,0.346,0.309,0.274,
EPLC-272H,0.531,0.151,0.298,0.197,0.207,0.897,0.793,0.918,0.658,0.423,0.4,0.38,0.335,0.311,0.343,0.24,0.154,0.241
NCI-H1915,0.672,0.538,0.669,0.631,0.639,0.97,0.973,1.02,0.957,0.506,0.426,0.514,0.472,0.379,0.384,0.326,0.357,0.334
NCI-H596,0.874,1.05,1.07,0.925,0.966,1.21,1.17,0.959,0.763,0.623,0.717,0.591,0.57,0.658,0.636,0.691,0.737,0.576
NCI-H322M,0.647,0.623,0.587,0.421,0.405,1.31,1.28,1.12,1.2,0.838,0.939,0.855,0.868,0.705,0.712,0.414,0.537,0.673
NCI-H647,0.365,0.445,0.495,0.191,0.235,0.967,1,1.35,0.449,0.588,0.669,0.614,0.24,0.417,0.399,0.262,0.324,0.473
NCI-H2085,0.522,0.372,0.41,0.289,0.341,1,0.978,0.996,0.912,0.799,0.954,0.802,0.724,0.483,0.406,0.318,0.29,0.448
NCI-H727,0.684,0.596,0.596,,0.578,0.756,0.893,0.751,0.618,1.27,1.14,1.15,1.07,0.445,0.465,0.488,0.315,0.683
NCI-H441,1.02,1.18,1.36,,1.19,0.454,,0.519,0.36,0.77,0.647,0.927,0.862,0.677,0.967,,0.468,0.679
LOU-NH91,0.695,0.69,0.704,0.519,0.543,0.481,0.552,0.465,0.517,0.942,1.06,0.845,0.827,0.546,0.737,0.46,0.556,0.718
NCI-H3122,0.956,0.987,1.05,0.696,0.777,0.97,0.966,1.07,0.989,1.04,1.04,0.921,0.937,0.385,0.371,,0.412,0.381
NCI-H460,0.618,0.674,0.791,0.459,0.568,1.04,1.05,1.14,0.864,0.834,0.72,0.659,0.603,0.492,0.535,0.326,0.182,0.512
NCI-H650,1.06,0.918,1.12,0.77,0.619,0.752,0.739,1.05,0.694,0.573,0.391,0.475,0.321,0.467,0.431,0.292,0.31,
NCI-H1734,0.533,0.504,0.556,0.303,0.367,0.919,0.792,1.05,0.662,0.813,0.76,0.778,0.717,0.386,0.465,0.229,0.226,0.333
LXF-289,1.11,1.13,1.26,0.982,0.956,0.98,0.973,1.03,0.985,0.722,0.783,0.796,0.654,0.491,0.51,0.452,0.307,0.471
H3255,0.895,0.83,0.984,0.697,0.692,0.782,0.944,0.726,0.43,0.77,0.796,0.858,0.772,0.356,0.386,0.343,0.34,0.333
201T,0.739,0.669,0.615,0.611,0.565,1.13,1.14,1.17,1.07,0.968,0.983,0.952,0.939,0.436,0.496,0.308,0.314,0.433
NCI-H2126,1.02,0.849,1.02,0.795,0.762,1.15,1.09,1.13,1.08,0.8,0.802,0.688,0.69,0.507,0.451,0.355,0.349,0.521
